Laboratory results published in publication PMC7113770 (Antiviral Research, 2018).
pIC50: −log10 of the molar value. Read-outs that look alike come from different tables or passages of the source.

Assays:
[1] = test system: HEV Sar55/S17 replicon (gt1); assay: HEV Sar55/S17 subgenomic replicon replication in Huh7.5
[2] = test system: HEVp6 replicon (Kernow-C1 p6, gt3); assay: HEVp6 subgenomic replicon; conditions: for IC90: read-out: IC90 (CI)
[3] = test system: different HEV constructs; assay: Different HEV subgenomic replicons in Huh7.5; conditions: Hepatitis E virus
[4] = test system: full-length HEV p6 clone; assay: Full-length p6 clone, ORF2 immunofluorescence in Huh7.5; format: cell-based, Hepatitis E virus; conditions: silvestrol 10 nM or RBV, 42 h, added 4 h after transfection
[5] = test system: HCV JFH1 subgenomic replicon; assay: HCV JFH1 subgenomic replicon replication in Huh7.5; conditions: for pIC50 / IC90: Hepatitis C virus; for pIC50: read-out: IC50 (CI); for IC90: read-out: IC90 (CI)
[6] = test system: Huh7.5 cells; assay: Trypan blue exclusion viable cell counting; format: cell-based, human; conditions: silvestrol 10 nM and 100 nM, 24 h, vs untreated cells
[7] = test system: Huh7.5 cells; assay: MTT cell viability assay in transfected Huh7.5; format: cell-based, human
[8] = MTT cell viability assay in transfected Huh7.5; format: cell-based, human; conditions: human, transfected Huh7.5 cells, CC50 (CI), 42 h treatment, Huh7.5, CI 95%
[9] = test system: gt1 HEV (strain Sar-55); format: in vivo; conditions: 0.3 mg/kg daily intraperitoneal, ten or six days, first days of treatment
[10] = 0.3 mg/kg daily intraperitoneal, monitored period
[11] = test system: HepG2/C3A cells; assay: MTT cell viability in HEVCC infection assay; format: cell-based, human; conditions: silvestrol 10, 20, 50 nM, all treatment setups
[12] = test system: hepatocyte-like cells (HLCs); assay: WST cell viability in hepatocyte-like cells; format: cell-based, human; conditions: 10 nM silvestrol for 24 h
[13] = test system: Ebola virus; conditions: read-out: IC50 Ebola virus replication; cited from earlier work
[14] = Hepatitis E virus, GT1, Huh7.5, 24 h, read-out: IC50 (CI), 24 h treatment, Huh7.5, CI 95%
[15] = Hepatitis E virus, GT1, Huh7.5, 42 h, read-out: IC50 (CI), 42 h treatment, Huh7.5, CI 95%
[16] = Hepatitis E virus, GT3, Huh7.5, 24 h, read-out: IC50 (CI), 24 h treatment, Huh7.5, CI 95%
[17] = Hepatitis E virus, GT3, Huh7.5, 24 h
[18] = Hepatitis E virus, GT3, Huh7.5, 42 h, read-out: IC50 (CI), 42 h treatment, Huh7.5, CI 95%
[19] = Hepatitis E virus, GT3, Huh7.5, 42 h

Compound	pIC50 [1, 14]	pIC50 [1, 15]	pIC50 [2, 16]	IC90 [2, 17] [nM]	pIC50 [2, 18]	IC90 [2, 19] [nM]	ORF2 positive cells (immunofluorescence) [4]	pIC50 ([5]; Huh7.5, 24 h)	IC90 ([5]; Huh7.5, 24 h) [nM]	pIC50 ([5]; Huh7.5, 42 h)	further results
NC(=O)c1ncn([C@@H]2O[C@H](CO)[C@@H](O)[C@H]2O)n1 [Ribavirin]	4.37	4.52	5.09	244000	5.16	50400	highly reduced	4.91	128000	4.20	pIC50 ([1]; read-out: IC50 (CI), 24 h treatment, Huh7.5, CI 95%): 4.37; pIC50 ([3]; GT1, Huh7.5, 24 h, read-out: IC50 HEV replication): 4.92 to 5.10
COC(=O)[C@H]1[C@@H](O)[C@@]2(O)c3c(OC)cc(O[C@@H]4O[C@@H]([C@H](O)CO)CO[C@H]4OC)cc3O[C@@]2(c2ccc(OC)cc2)[C@@H]1c1ccccc1 [Silvestrol, silvestrol]	8.18	8.50	8.35	64.7	8.54	27.3	highly reduced	7.61	128	7.15	IC90 ([1]; Hepatitis E virus, GT1, Huh7.5, 42 h, read-out: IC90 (CI)): 52.8 nM; viable cells (trypan blue cell counting) [6]: no significant reductions; selectivity index ([2]; 42 h, p6 strain, CC50/IC50): about 8.6; pIC50 ([2]; read-out: IC50 (CI), 42 h treatment, Huh7.5, CI 95%): 8.54; cytotoxic concentration 50 (CC50) ([7]; 24 h treatment, Huh7.5): did not reach a cytotoxic concentration 50 (CC50); CC50 ([7]; read-out: CC50 (CI), 42 h treatment, Huh7.5, CI 95%): 24.8 nM; CC50 at 42 h [8]: 24.8 nM; HEV RNA in the feces [9]: rapid decline; body weight [10]: No changes; pIC50 ([3]; Huh7.5, 24 h, read-out: IC50 for the different HEV constructs): 8.18 to 8.40; cell viability (MTT) [11]: not reduced; IC90 ([5]; Huh7.5, 42 h): 518 nM; susceptibility of HCV reference replicon compared with HEV ([5]; Huh7.5, 24 h): less susceptible; cytotoxicity (WST assay) in HLCs [12]: without cytotoxicity; pIC50 [13]: > 9.00
